Reference: patent US8129434B2, “Benzylphenyl cyclohexane derivatives and methods of use” (Theracos, Inc., priority 2007, dated 2012)

Legend:
human SGLT1 = biological target: T1, human SGLT1 (Homo sapiens, UniProt P13866); assay: Methyl-α-D-[U-14C]glucopyranoside uptake assay, human SGLT1 expressing cells; format: cell-based; settings: COS-7 cells transfected with human SGLT1; 25% human serum; 2 h at 37° C.; sodium-dependent uptake
T1 construct: Full-length human SGLT1 cDNA on pDream2.1 expression vector was obtained from GenScript Corporation; host or cells: COS-7 (American Type Culture Collection)
T1 sequence (P13866 1-664): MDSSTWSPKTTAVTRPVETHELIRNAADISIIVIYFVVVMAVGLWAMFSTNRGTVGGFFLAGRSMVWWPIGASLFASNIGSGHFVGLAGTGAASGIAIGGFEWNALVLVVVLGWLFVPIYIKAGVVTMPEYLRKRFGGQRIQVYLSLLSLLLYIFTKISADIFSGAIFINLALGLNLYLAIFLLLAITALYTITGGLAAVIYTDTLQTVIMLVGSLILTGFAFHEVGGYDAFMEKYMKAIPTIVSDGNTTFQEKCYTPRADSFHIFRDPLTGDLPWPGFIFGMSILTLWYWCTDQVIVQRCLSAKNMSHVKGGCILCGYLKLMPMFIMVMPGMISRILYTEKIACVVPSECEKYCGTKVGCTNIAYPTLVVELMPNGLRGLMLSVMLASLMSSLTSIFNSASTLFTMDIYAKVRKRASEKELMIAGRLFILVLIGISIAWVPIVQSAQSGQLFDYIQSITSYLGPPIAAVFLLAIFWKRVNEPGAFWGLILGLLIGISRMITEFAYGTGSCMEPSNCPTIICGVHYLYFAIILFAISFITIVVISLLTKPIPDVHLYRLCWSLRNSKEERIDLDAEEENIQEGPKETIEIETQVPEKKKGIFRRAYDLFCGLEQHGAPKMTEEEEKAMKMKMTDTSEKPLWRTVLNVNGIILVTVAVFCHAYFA
Experimental: Full-length human SGLT1 cDNA on pDream2.1 expression vector was obtained from GenScript Corporation and propagated in Escherichia coli strain DH5α using Luria-Bertani (LB) medium containing ampicillin. Plasmid DNA was isolated using the QIAGEN Plasmid Midi Kit (QIAGEN Inc.). […] Transfected cells were stored in DMEM containing 10% dimethyl sulfoxide (DMSO) at −80 ° C.
(§1) Cells expressing SGLT1 or SGLT2 were seeded on 96-well ScintiPlate scintillating plates (PerkinElmer, Inc.) in DMEM containing 10% FBS (1×10^5 cells per well in 100 μl medium) incubated at 37° C. under 5% CO2 for 48 h prior to the assay. Cells were washed twice with 150 μl of either sodium buffer (137 mM NaCl, 5.4 mM KCl, 2.8 mM CaCl2, 1.2 mM MgCl2, 10 mM tris(hydroxymethyl)aminomethane/N-2-hydroxyethylpiperazine-N′-ethanesulfonic acid [Tris/Hepes], pH 7.2) or sodium-free buffer (137 mM N-methyl-glucamine, 5.4 mM KCl, 2.8 mM CaCl2, 1.2 mM MgCl2, 10 mM Tris/Hepes, pH 7.2). Test compound in 50 μl each of sodium or sodium-free buffer containing 40 μCi/ml methyl-α-D-[U-^14C]glucopyranoside (Amersham Biosciences/GE Healthcare) and 25% human serum was added per well of a 96-well plate and incubated at 37° C. with shaking for either 2 h (SGLT1 assay) or 1.5 h (SGLT2 assay). Cells were washed twice with 150 μl of wash buffer (137 mM N-methylglucamine, 10 mM Tris/Hepes, pH 7.2) and methyl-α-D-[U-^14C]glucopyranoside uptake was quantitated using a TopCount scintillation counter (PerkinElmer, Inc.). Sodium-dependent glucopyranoside uptake was measured by subtracting the values obtained with sodium-free buffer from those obtained using sodium buffer (average of triplicate determinations).

human SGLT2 = biological target: T2, human SGLT2 (Homo sapiens, UniProt P31639); assay: Methyl-α-D-[U-14C]glucopyranoside uptake assay, cells stably expressing human SGLT2; format: cell-based; settings: HEK293.ETN cells stably expressing human SGLT2; 25% human serum; 1.5 h at 37° C.; sodium-dependent uptake
T2 construct: A full-length cDNA clone expressing human SGLT2 (GenScript Corporation) was subcloned into Hind III and Not I sites of pEAK15 expression vector
T2 sequence (P31639 1-672): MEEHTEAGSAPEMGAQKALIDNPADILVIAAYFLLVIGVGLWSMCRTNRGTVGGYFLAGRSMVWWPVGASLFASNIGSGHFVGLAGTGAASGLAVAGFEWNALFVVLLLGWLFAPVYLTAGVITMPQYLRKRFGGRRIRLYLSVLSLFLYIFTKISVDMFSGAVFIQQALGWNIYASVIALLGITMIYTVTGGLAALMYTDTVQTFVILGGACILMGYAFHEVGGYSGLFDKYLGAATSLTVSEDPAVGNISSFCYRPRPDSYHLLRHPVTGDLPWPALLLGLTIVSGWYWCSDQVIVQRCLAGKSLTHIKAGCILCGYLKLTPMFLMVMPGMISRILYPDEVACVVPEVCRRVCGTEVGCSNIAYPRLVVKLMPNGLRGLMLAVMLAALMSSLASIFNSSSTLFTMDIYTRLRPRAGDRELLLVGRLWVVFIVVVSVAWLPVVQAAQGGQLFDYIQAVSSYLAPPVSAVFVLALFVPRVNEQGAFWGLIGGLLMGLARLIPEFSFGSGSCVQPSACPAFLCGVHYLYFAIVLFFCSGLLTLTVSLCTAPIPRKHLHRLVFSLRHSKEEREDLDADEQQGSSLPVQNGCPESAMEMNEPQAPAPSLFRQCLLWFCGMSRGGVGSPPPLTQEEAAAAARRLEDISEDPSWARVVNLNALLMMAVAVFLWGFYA
Text: A full-length cDNA clone expressing human SGLT2 (GenScript Corporation) was subcloned into Hind III and Not I sites of pEAK15 expression vector. Clones harboring the cDNA inserts were identified by restriction analysis.
Plasmid containing human SGLT2 was linearized with Nsi I and purified by agarose gel electrophoresis. Using Lipofectamine 2000 Transfection Reagent (Invitrogen Corporation), DNA was transfected into HEK293.ETN cells and cultured in Dulbecco's Modified Eagle Medium (DMEM) containing 10% fetal bovine serum (FBS) at 37° C. under 5% CO2 for 24 h. Transfectants were selected in the same growth medium supplemented with puromycin (Invitrogen Corporation) for two weeks. Puromycin-resistant cells were recovered and seeded on a fresh 96-well plate (single cell per well) and cultured in the presence of puromycin until cells became confluent. Puromycin-resistant clones were evaluated for SGLT2 activity in the methyl-α-D-[U-^14C]glucopyranoside uptake assay described below.
as §1

Row | IC50 (human SGLT1) [nM] | IC50 (human SGLT2) [nM] | SMILES
1 | 1000 to 10000 | < 1000 | CCc1ccc(Cc2cc([C@H]3[C@H](O)[C@@H](O)[C@H](O)[C@@H](COC(C)=O)[C@@H]3O)ccc2Cl)cc1 [Compound 17, ((1S,2R,3R,4S,5R,6R)-3-(4-chloro-3-(4-ethylbenzyl)phenyl)-2,4,5,6-tetrahydroxycyclohexyl)methyl acetate]
2 | < 1000 | < 1000 | CCc1ccc(Cc2cc([C@H]3[C@H](O)[C@@H](O)[C@H](O)[C@@H](CO)[C@@H]3O)ccc2Cl)cc1 [5 (R = Et), (1R,2R,3S,4R,5R,6S)-4-(4-chloro-3-(4-ethylbenzyl)phenyl)-6-(hydroxymethyl)cyclohexane-1,2,3,5-tetraol]
3 | > 10000 | < 1000 | OC[C@@H]1[C@@H](O)[C@H](O)[C@@H](O)[C@H](c2ccc(Cl)c(Cc3ccc(C4CCCCC4)cc3)c2)[C@H]1O [Compound 12, (1R,2R,3S,4R,5R,6S)-4-(4-chloro-3-(4-cyclohexylbenzyl)phenyl)-6-(hydroxymethyl)cyclohexane-1,2,3,5-tetraol]
4 | > 10000 | < 1000 | OC[C@H]1C=C(c2ccc(Cl)c(Cc3ccc(OCC#CC4CC4)cc3)c2)[C@H](O)[C@@H](O)[C@@H]1O [Compound 13, (1R,2S,3S,6R)-4-(4-chloro-3-(4-(3-cyclopropylprop-2-ynyloxy)benzyl)phenyl)-6-(hydroxymethyl)cyclohex-4-ene-1,2,3-triol]
5 | 1000 to 10000 | < 1000 | CCCc1ccc(Cc2cc([C@H]3[C@H](O)[C@@H](O)[C@H](O)[C@@H](CO)[C@@H]3O)ccc2Cl)cc1 [Compound 11, (1R,2R,3S,4R,5R,6S)-4-(4-chloro-3-(4-propylbenzyl)phenyl)-6-(hydroxymethyl)cyclohexane-1,2,3,5-tetraol]
6 | 1000 to 10000 | < 1000 | CCc1ccc(Cc2cc([C@H]3[C@H](O)[C@@H](O)[C@H](O)[C@@H](CO)C34CC4)ccc2Cl)cc1 [Compound 37, (4S,5S,6R,7R,8R)-4-(4-chloro-3-(4-ethylbenzyl)phenyl)-8-(hydroxymethyl)spiro[2.5]octane-5,6,7-triol]
7 | 1000 to 10000 | < 1000 | C=C1[C@H](CO)[C@@H](O)[C@H](O)[C@@H](O)[C@@H]1c1ccc(Cl)c(Cc2ccc(CC)cc2)c1 [Compound 35, (1R,2R,3S,4S,6R)-4-(4-chloro-3-(4-ethylbenzyl)phenyl)-6-(hydroxymethyl)-5-methylenecyclohexane-1,2,3-triol]

The next lines start with the molecule.

Row | SMILES | IC50 (human SGLT1) [nM] | IC50 (human SGLT2) [nM]
8 | OC[C@@H]1[C@@H](O)[C@H](O)[C@@H](O)[C@H](c2ccc(Cl)c(Cc3ccc(C4CC4)cc3)c2)[C@H]1O [Compound 10, (1R,2R,3S,4R,5R,6S)-4-(4-chloro-3-(4-cyclopropylbenzyl)phenyl)-6-(hydroxymethyl)cyclohexane-1,2,3,5-tetraol] | < 1000 | < 1000
9 | CCc1ccc(Cc2ccccc2O[C@H]2[C@H](O)[C@@H](O)[C@H](O)[C@@H](CO)[C@@H]2O)cc1 [Compound 30, (1R,2S,3R,4R,5S,6R)-4-(2-(4-ethylbenzyl)phenoxy)-6-(hydroxymethyl)cyclohexane-1,2,3,5-tetraol] | > 10000 | < 1000
10 | CC(=O)c1ccc(Cc2cc([C@H]3[C@H](O)[C@@H](O)[C@H](O)[C@@H](CO)[C@@H]3O)ccc2Cl)cc1 [Compound 39, 1-(4-(2-chloro-5-((1R,2S,3R,4R,5S,6R)-2,3,4,6-tetrahydroxy-5-(hydroxymethyl)cyclohexyl)benzyl)phenyl)ethanone] | 1000 to 10000 | < 1000
11 | CC(O)c1ccc(Cc2cc([C@H]3[C@H](O)[C@@H](O)[C@H](O)[C@@H](CO)[C@@H]3O)ccc2Cl)cc1 (stereo partly drawn) [Compound 40, (1R,2R,3S,4R,5R,6S)-4-(4-chloro-3-(4-(1-hydroxyethyl)benzyl)phenyl)-6-(hydroxymethyl)cyclohexane-1,2,3,5-tetraol] | 1000 to 10000 | < 1000
12 | CCOc1ccc(Cc2cc([C@H]3[C@H](O)[C@@H](O)[C@H](O)[C@@H](CO)[C@@H]3O)ccc2Cl)cc1 [Compound 9, (1R,2R,3S,4R,5R,6S)-4-(4-chloro-3-(4-ethoxybenzyl)phenyl)-6-(hydroxymethyl)cyclohexane-1,2,3,5-tetraol] | 1000 to 10000 | < 1000
